Measured values published in patent US4220755A, “Fortimicin B derivatives and process for production thereof” (Abbott Laboratories, priority 1976, dated 1980).
Converted amounts (≈) assume the structure as drawn. Like-named read-outs stand apart in the source and are kept apart here.

Key:
Experiment in all cases: MIC, agar dilution method, pH 8.0
Assay type in all cases: cell-based
[1] = test system: Salmonella typhosa KY4278 ATCC9992; conditions: Salmonella enterica, pH 8, read-out: Minimum inhibition concentration (MIC), ST
Method: (§1) Measurement was carried out according to the agar dilution method, using a medium of pH 8.0, or the Japanese Antibiotic Medicament Standard, using a medium of pH 7.2 Units are in mcg/ml.
S.T.: Salmonella typhosa KY4278 ATCC9992

[2] = test system: Shigella sonnei KY4281 ATCC9290
Method: as §1

[3] = test system: Proteus vulgaris KY4277 ATCC6897
Method: as §1

[4] = test system: Staphylococcus aureus KY4279 ATCC6538P
Method: as §1
S.A.: Staphylococcus aureus KY4279 ATCC6538P

Bacillus subtilis KY4273 = test system: Bacillus subtilis KY4273
Method: as §1
B.S.: Bacillus subtilis KY4273

[5] = test system: Eschericia coli KY4271 ATCC26; conditions: Escherichia coli
Method: as §1
E.C.: Eschericia coli KY4271 ATCC26

[6] = test system: Klebsiella pneumoniae KY4275 ATCC10031; conditions: ATCC10031; pH 8.0; Klebsiella pneumoniae KY4275; read-out: Minimum inhibition concentration (MIC), KP
Method: as §1
K.P.: Klebsiella pneumoniae KY4275 ATCC10031.

[7] = ATCC6897, pH 8.0, Proteus vulgaris KY4277, read-out: Minimum inhibition concentration (MIC), PV
[8] = pH 8.0, Staphylococcus aureus KY4279, read-out: Minimum inhibition concentration (MIC), SA
[9] = Bacillus subtilis, KY4273, pH 8, read-out: Minimum inhibition concentration (MIC), BS
[10] = ATCC26, pH 8.0, E. coli KY4271, read-out: Minimum inhibition concentration (MIC), EC
[11] = ATCC9290, pH 8.0, Shigella sonnei KY4281, read-out: Minimum inhibition concentration (MIC), SS
[12] = pH 8.0, Bacillus subtilis KY4273, read-out: Minimum inhibition concentration (MIC), BS
[13] = ATCC26, pH 8, read-out: Minimum inhibition concentration (MIC), EC
[14] = Staphylococcus aureus, pH 8, read-out: Minimum inhibition concentration (MIC), SA
[15] = Proteus vulgaris, ATCC6897, pH 8, read-out: Minimum inhibition concentration (MIC), PV

Row | SMILES | MIC [1] [µg/mL] | MIC ([2]; Shigella sonnei, ATCC9290, pH 8, read-out: Minimum inhibition concentration (MIC), SS) [µg/mL] | MIC [3, 7] [µg/mL] | MIC [4, 8] [µg/mL] | MIC (Bacillus subtilis KY4273; [9]) [µg/mL] | MIC [5, 10] [µg/mL] | MIC [6] [µg/mL] | MIC [2, 11] [µg/mL] | MIC (Bacillus subtilis KY4273; [12]) [µg/mL] | MIC [5, 13] [µg/mL] | MIC [4, 14] [µg/mL] | MIC [3, 15] [µg/mL]
1 | CO[C@H]1[C@@H](O)[C@H](N)[C@@H](O[C@H]2O[C@H]([C@H](C)N)CC[C@H]2N)[C@H](O)[C@@H]1N(C)C[C@@H](O)CCCN [Compound 33, 4-N-[(S)-5-amino-2-hydroxypentyl]fortimicin B] | 10 (≈ 22.2 µM) | 1.25 (≈ 2.78 µM) | 5 (≈ 11.1 µM) | 0.32 (≈ 0.712 µM) | 1.25 (≈ 2.78 µM) | 2.5 (≈ 5.56 µM) |  |  |  |  |  | 
2 | CO[C@H]1[C@@H](O)[C@H](N)[C@@H](O[C@H]2O[C@H]([C@H](C)N)CC[C@H]2N)[C@H](O)[C@@H]1N(C)CCCCN [Compound 21, 4-N-(4-aminobutyl)fortimicin B] | 1.25 (≈ 2.98 µM) |  | 2.5 (≈ 5.96 µM) | 0.32 (≈ 0.763 µM) |  |  | 5 (≈ 11.9 µM) | 2.5 (≈ 5.96 µM) | 0.32 (≈ 0.763 µM) | 1.25 (≈ 2.98 µM) |  | 
3 | CO[C@H]1[C@@H](O)[C@H](N)[C@@H](O[C@H]2O[C@H]([C@H](C)N)CC[C@H]2N)[C@H](O)[C@@H]1N(C)C(C)=O [Compound 5, 4-N-acetylfortimicin B] | 50 (≈ 128 µM) |  | 100 (≈ 256 µM) | 12.5 (≈ 32 µM) |  | 50 (≈ 128 µM) | > 200 | 50 (≈ 128 µM) | 50 (≈ 128 µM) |  |  | 
4 | CCC(=O)N(C)[C@H]1[C@@H](O)[C@H](O[C@H]2O[C@H]([C@H](C)N)CC[C@H]2N)[C@@H](N)[C@H](O)[C@@H]1OC [Compound 6, 4-N-propionylfortimicin B] | 50 (≈ 124 µM) |  | 200 (≈ 494 µM) | 12.5 (≈ 30.9 µM) |  | 50 (≈ 124 µM) | > 200 | > 200 | 50 (≈ 124 µM) |  |  | 
5 | CO[C@H]1[C@@H](O)[C@H](N)[C@@H](O[C@H]2O[C@H]([C@H](C)N)CC[C@H]2N)[C@H](O)[C@@H]1N(C)C(=O)CNC(=O)CN [Compound 13, 4-N-glycylglycylfortimicin B] | 1.25 (≈ 2.7 µM) |  | 2.5 (≈ 5.4 µM) | 0.32 (≈ 0.692 µM) |  |  | 2.5 (≈ 5.4 µM) | 5 (≈ 10.8 µM) | 0.32 (≈ 0.692 µM) | 1.25 (≈ 2.7 µM) |  | 
6 | CNC[C@H](O)CN(C)[C@H]1[C@@H](O)[C@H](O[C@H]2O[C@H]([C@H](C)N)CC[C@H]2N)[C@@H](N)[C@H](O)[C@@H]1OC [Compound 32, 4-N-[(S)-3-methylamino-2-hydroxypropyl]fortimicin B] | 0.63 (≈ 1.45 µM) |  | 2.5 (≈ 5.74 µM) | 0.16 (≈ 0.367 µM) |  | 2.5 (≈ 5.74 µM) | 5 (≈ 11.5 µM) | 2.5 (≈ 5.74 µM) | 0.63 (≈ 1.45 µM) |  |  | 
7 | CNCCC(O)CN(C)[C@H]1[C@@H](O)[C@H](O[C@H]2O[C@H]([C@H](C)N)CC[C@H]2N)[C@@H](N)[C@H](O)[C@@H]1OC (stereo partly drawn) [Compound 30, 4-N-[(R,S)-4-methylamino-2-hydroxybutyl]fortimicin B] | 0.08 (≈ 0.178 µM) |  | 0.16 (≈ 0.356 µM) | 0.08 (≈ 0.178 µM) |  | 0.32 (≈ 0.712 µM) | 0.32 (≈ 0.712 µM) | 0.63 (≈ 1.4 µM) | 0.02 (≈ 0.0445 µM) |  |  | 
8 | CO[C@H]1[C@@H](O)[C@H](N)[C@@H](O[C@H]2O[C@H]([C@H](C)N)CC[C@H]2N)[C@H](O)[C@@H]1N(C)CCCCCCN [Compound 23, 4-N-(6-aminohexyl)fortimicin B] | 20 (≈ 44.7 µM) |  | > 80 | 5 (≈ 11.2 µM) |  | 20 (≈ 44.7 µM) | > 80 | > 80 | 5 (≈ 11.2 µM) |  |  | 
9 | CCCCCN(C)[C@H]1[C@@H](O)[C@H](O[C@H]2O[C@H]([C@H](C)N)CC[C@H]2N)[C@@H](N)[C@H](O)[C@@H]1OC [Compound 19, 4-N-(n-pentyl)fortimicin B] | 100 (≈ 239 µM) |  | > 200 | 25 (≈ 59.7 µM) |  | 100 (≈ 239 µM) | > 200 | 100 (≈ 239 µM) | 200 (≈ 478 µM) |  |  | 
10 | CO[C@H]1[C@@H](O)[C@H](N)[C@@H](O[C@H]2O[C@H]([C@H](C)N)CC[C@H]2N)[C@H](O)[C@@H]1N(C)CCO [Compound 24, 4-N-(2-hydroxyethyl)fortimicin B] | 1.25 (≈ 3.18 µM) |  | 10 (≈ 25.5 µM) |  |  | 5 (≈ 12.7 µM) | 40 (≈ 102 µM) | 10 (≈ 25.5 µM) | > 80 |  | 1.25 (≈ 3.18 µM) | 
11 | CNCCN(C)[C@H]1[C@@H](O)[C@H](O[C@H]2O[C@H]([C@H](C)N)CC[C@H]2N)[C@@H](N)[C@H](O)[C@@H]1OC [Compound 26, 4-N-(2-methylaminoethyl)fortimicin B] | 1.25 (≈ 3.08 µM) |  |  | 0.04 (≈ 0.0986 µM) |  | 0.16 (≈ 0.395 µM) | 5 (≈ 12.3 µM) | 5 (≈ 12.3 µM) | 0.32 (≈ 0.789 µM) |  |  | 1.25 (≈ 3.08 µM)
12 | CO[C@H]1[C@@H](O)[C@H](N)[C@@H](O[C@H]2O[C@H]([C@H](C)N)CC[C@H]2N)[C@H](O)[C@@H]1N(C)CCNCCN [Compound 25, 4-N-[2-(2-aminoethyl)aminoethyl]fortimicin B] | 1.25 (≈ 2.88 µM) |  | 5 (≈ 11.5 µM) | 0.63 (≈ 1.45 µM) | 1.25 (≈ 2.88 µM) |  | 5 (≈ 11.5 µM) | 5 (≈ 11.5 µM) |  | 1.25 (≈ 2.88 µM) |  | 
13 | CO[C@H]1[C@@H](O)[C@H](N)[C@@H](O[C@H]2O[C@H]([C@H](C)N)CC[C@H]2N)[C@H](O)[C@@H]1N(C)C[C@@H](O)CN [Compound 31, 4-N-[(S)-3-amino-2-hydroxypropyl]fortimicin B] | 0.63 (≈ 1.49 µM) |  | 1.25 (≈ 2.97 µM) | 0.16 (≈ 0.38 µM) |  | 2.5 (≈ 5.93 µM) | 2.5 (≈ 5.93 µM) | 2.5 (≈ 5.93 µM) | 0.32 (≈ 0.759 µM) |  |  | 
14 | CCCCC(=O)N(C)[C@H]1[C@@H](O)[C@H](O[C@H]2O[C@H]([C@H](C)N)CC[C@H]2N)[C@@H](N)[C@H](O)[C@@H]1OC [Compound 8, 4-N-(n-valeryl)fortimicin B] | > 200 |  | > 200 | 100 (≈ 231 µM) |  | > 100 | > 200 | > 200 | 25 (≈ 57.8 µM) |  |  | 
15 | CO[C@H]1[C@@H](O)[C@H](N)[C@@H](O[C@H]2O[C@H]([C@H](C)N)CC[C@H]2N)[C@H](O)[C@@H]1N(C)CCCN [Compound 20, 4-N-(3-aminopropyl)fortimicin B] | 1.25 (≈ 3.08 µM) |  | 10 (≈ 24.7 µM) |  |  | 5 (≈ 12.3 µM) | 80 (≈ 197 µM) | 20 (≈ 49.3 µM) | 2.5 (≈ 6.16 µM) |  | 1.25 (≈ 3.08 µM) | 
16 | CCCC(=O)N(C)[C@H]1[C@@H](O)[C@H](O[C@H]2O[C@H]([C@H](C)N)CC[C@H]2N)[C@@H](N)[C@H](O)[C@@H]1OC [Compound 7, 4-N-(n-butyryl)fortimicin B] | 12.5 (≈ 29.9 µM) |  | 100 (≈ 239 µM) | 6.25 (≈ 14.9 µM) | 12.5 (≈ 29.9 µM) | 6.25 (≈ 14.9 µM) | 25 (≈ 59.7 µM) | 50 (≈ 119 µM) |  |  |  | 
17 | CCN(C)[C@H]1[C@@H](O)[C@H](O[C@H]2O[C@H]([C@H](C)N)CC[C@H]2N)[C@@H](N)[C@H](O)[C@@H]1OC [Compound 16, 4-N-ethylfortimicin B] | 3.13 (≈ 8.31 µM) |  |  | 1.56 (≈ 4.14 µM) | 3.13 (≈ 8.31 µM) |  | 50 (≈ 133 µM) | 6.25 (≈ 16.6 µM) |  | 3.13 (≈ 8.31 µM) |  | 6.25 (≈ 16.6 µM)
18 | CCCN(C)[C@H]1[C@@H](O)[C@H](O[C@H]2O[C@H]([C@H](C)N)CC[C@H]2N)[C@@H](N)[C@H](O)[C@@H]1OC [Compound 17, 4-N-(n-propyl)fortimicin B] | 6.25 (≈ 16 µM) |  |  | 3.13 (≈ 8.01 µM) | 12.5 (≈ 32 µM) |  | 100 (≈ 256 µM) | 12.5 (≈ 32 µM) |  | 6.25 (≈ 16 µM) |  | 12.5 (≈ 32 µM)
19 | CO[C@H]1[C@@H](O)[C@H](N)[C@@H](O[C@H]2O[C@H]([C@H](C)N)CC[C@H]2N)[C@H](O)[C@@H]1N(C)C(=O)CCCN [Compound 10, 4-N-(γ-amino-n-butyryl)fortimicin B] | 0.63 (≈ 1.45 µM) |  | 1.25 (≈ 2.88 µM) | 0.32 (≈ 0.738 µM) |  | 1.25 (≈ 2.88 µM) | 2.5 (≈ 5.77 µM) | 2.5 (≈ 5.77 µM) | 0.16 (≈ 0.369 µM) |  |  | 
20 | CO[C@H]1[C@@H](O)[C@H](N)[C@@H](O[C@H]2O[C@H]([C@H](C)N)CC[C@H]2N)[C@H](O)[C@@H]1N(C)C(=O)CCN [Compound 9, 4-N-(β-alanyl)fortimicin B] | 0.32 (≈ 0.763 µM) |  | 0.63 (≈ 1.5 µM) | 0.08 (≈ 0.191 µM) |  | 0.63 (≈ 1.5 µM) | 0.32 (≈ 0.763 µM) | 1.25 (≈ 2.98 µM) | 0.08 (≈ 0.191 µM) |  |  | 
21 | CCCCN(C)[C@H]1[C@@H](O)[C@H](O[C@H]2O[C@H]([C@H](C)N)CC[C@H]2N)[C@@H](N)[C@H](O)[C@@H]1OC [Compound 18, 4-N-(n-butyl)fortimicin B] | 12.5 (≈ 30.9 µM) |  | 100 (≈ 247 µM) |  |  | 25 (≈ 61.8 µM) | > 200 | 25 (≈ 61.8 µM) | 25 (≈ 61.8 µM) |  | 12.5 (≈ 30.9 µM) | 
22 | CO[C@H]1[C@@H](O)[C@H](N)[C@@H](O[C@H]2O[C@H]([C@H](C)N)CC[C@H]2N)[C@H](O)[C@@H]1N(C)C(=O)CCCCCN [Compound 12, 4-N-(ε-amino-n-caproyl)fortimicin B] | > 20 |  | > 20 | > 20 |  | > 20 | > 20 | > 20 | > 20 |  |  | 
